Reference: publication PMC6693507 (Analytical chemistry, 2019)

Legend:
ACE = molecular target: T1, ACE (Mus musculus, UniProt P09470); test: In vitro ACE cleavage of synthetic peptides, MALDI-TOF MS; format: biochemical; conditions: 2 pmol/μL peptide, WT ACE or NKO ACE, 30 min, 37 °C
T1 sequence (P09470 35-1312): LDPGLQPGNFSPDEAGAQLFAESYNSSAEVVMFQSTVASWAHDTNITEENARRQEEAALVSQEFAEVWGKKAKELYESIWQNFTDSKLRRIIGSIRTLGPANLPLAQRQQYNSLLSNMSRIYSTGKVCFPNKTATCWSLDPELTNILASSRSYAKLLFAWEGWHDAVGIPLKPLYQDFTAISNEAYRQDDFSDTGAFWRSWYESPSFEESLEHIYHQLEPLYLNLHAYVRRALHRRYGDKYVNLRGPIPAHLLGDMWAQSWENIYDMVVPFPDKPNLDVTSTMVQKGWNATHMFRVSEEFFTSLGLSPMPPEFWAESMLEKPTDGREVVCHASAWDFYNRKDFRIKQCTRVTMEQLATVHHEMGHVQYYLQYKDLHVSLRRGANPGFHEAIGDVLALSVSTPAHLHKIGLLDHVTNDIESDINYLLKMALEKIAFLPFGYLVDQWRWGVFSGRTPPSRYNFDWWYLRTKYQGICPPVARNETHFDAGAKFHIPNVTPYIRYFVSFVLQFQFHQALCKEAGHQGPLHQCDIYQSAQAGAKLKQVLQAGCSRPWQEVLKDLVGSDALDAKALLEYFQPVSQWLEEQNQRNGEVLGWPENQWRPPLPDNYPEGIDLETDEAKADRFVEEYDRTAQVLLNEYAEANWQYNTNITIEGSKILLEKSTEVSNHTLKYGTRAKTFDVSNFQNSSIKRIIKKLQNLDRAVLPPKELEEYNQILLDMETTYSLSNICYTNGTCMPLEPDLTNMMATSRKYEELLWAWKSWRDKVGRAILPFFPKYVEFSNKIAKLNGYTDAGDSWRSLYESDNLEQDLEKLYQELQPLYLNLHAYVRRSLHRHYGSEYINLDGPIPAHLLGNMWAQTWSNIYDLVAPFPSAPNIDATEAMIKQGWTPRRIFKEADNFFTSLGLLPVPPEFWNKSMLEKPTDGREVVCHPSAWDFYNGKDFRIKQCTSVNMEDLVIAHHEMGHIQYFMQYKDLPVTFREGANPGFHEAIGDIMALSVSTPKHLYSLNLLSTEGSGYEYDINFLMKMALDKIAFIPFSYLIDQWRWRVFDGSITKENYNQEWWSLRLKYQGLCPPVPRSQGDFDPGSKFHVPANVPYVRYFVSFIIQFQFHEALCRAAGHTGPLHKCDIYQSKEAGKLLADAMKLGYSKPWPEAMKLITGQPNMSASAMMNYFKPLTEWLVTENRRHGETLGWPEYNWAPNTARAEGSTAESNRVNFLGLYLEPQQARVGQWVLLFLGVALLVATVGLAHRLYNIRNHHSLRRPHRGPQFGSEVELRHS

WT ACE = test: 100 μL of HEPES buffer; conditions: mouse (ACE purified from mouse lung and kidney), 37 °C, up to 30 min

Substance	cleavage products detectable by MALDI-MS (ACE)	not cleaved (WT ACE)
FPDGTKEMD [serine-protease inhibitor A3K (22–30)]	not detectable	
FSSLMNLEEKPAPAA [apolipoprotein A-II (87–101)]	not detectable	
WGTGSPRPG		not further cleaved by ACE
FPRSPL		not further cleaved by ACE
